Experimental data as given in PubChem BioAssay AID1745844 (Carcinogenic Potency Database (CPDB), 2022).

Test system: rodent lifetime carcinogenesis bioassay, tumor incidence TD50
Test: chronic cancer bioassays in animals – CPDB, compiled studies (AID 1745844)
Details: rat, strain Fischer 344, in feed

Molecule Nc1c(Br)cc(Br)c2c1C(=O)c1ccccc1C2=O has a TD50 (females, site: liver, lesion: hepatocholangiocarcinoma, dosed 103 weeks, study length 104 weeks) of 566 mg/kg/day, a TD50 (females, site: rectum, lesion: adenocarcinoma, dosed 103 weeks, study length 104 weeks) of 420 mg/kg/day and a TD50 (females, site: rectum, lesion: polypoid adenoma, dosed 40 weeks, study length 66 weeks) of 217 mg/kg/day. The TD50 (females, site: rectum, lesion: polypoid adenoma, dosed 103 weeks, study length 104 weeks) was 74 mg/kg/day, the TD50 (females, site: skin, lesion: squamous-cell papilloma, dosed 103 weeks, study length 104 weeks) was 2600 mg/kg/day and the TD50 (females, site: urinary bladder, lesion: transitional-cell carcinoma + transitional-cell papilloma + transitional epithelium, squamous-cell carcinoma + transitional ep, dosed 66 weeks, study length 66 weeks) was 2190 mg/kg/day. The TD50 (females, site: urinary bladder, lesion: transitional-cell carcinoma + transitional-cell papilloma + transitional epithelium, squamous-cell carcinoma + transitional ep, dosed 103 weeks, study length 104 weeks) was 304 mg/kg/day, the TD50 (females, site: urinary bladder, lesion: transitional-cell carcinoma, dosed 66 weeks, study length 66 weeks) was 4830 mg/kg/day and the TD50 (females, site: urinary bladder, lesion: transitional-cell carcinoma, dosed 103 weeks, study length 104 weeks) was 656 mg/kg/day. For the same molecule, the TD50 (females, site: urinary bladder, lesion: transitional-cell papilloma, dosed 103 weeks, study length 104 weeks) was 782 mg/kg/day, the TD50 (males, site: any site (literature study), lesion: several types, types named in the paper, dosed 39 weeks, study length 66 weeks) was 123 mg/kg/day and the TD50 (males, site: any site (literature study), lesion: several types, types named in the paper, dosed 66 weeks, study length 66 weeks) was 193 mg/kg/day. It also gave a TD50 (males, site: any site (literature study), lesion: several types, types named in the paper, dosed 103 weeks, study length 104 weeks) of 130 mg/kg/day, a TD50 (males, site: colon + kidney + liver + rectum + urinary bladder, lesion: adenocarcinoma + polypoid adenoma + tubule adenoma + tubule carcinoma + hepatocholangiocarcinoma + hepatocellular adenoma + hepatoce, dosed 103 weeks, study length 104 weeks) of 54.6 mg/kg/day and a TD50 (males, site: colon + rectum, lesion: adenocarcinoma, dosed 66 weeks, study length 66 weeks) of 1870 mg/kg/day. The TD50 (males, site: colon + rectum, lesion: adenocarcinoma, dosed 103 weeks, study length 104 weeks) was 320 mg/kg/day, the TD50 (males, site: colon + rectum, lesion: polypoid adenoma, dosed 39 weeks, study length 66 weeks) was 297 mg/kg/day and the TD50 (males, site: colon + rectum, lesion: polypoid adenoma, dosed 66 weeks, study length 66 weeks) was 426 mg/kg/day. For the same molecule, the TD50 (males, site: colon + rectum, lesion: polypoid adenoma, dosed 103 weeks, study length 104 weeks) was 64.3 mg/kg/day, the TD50 (males, site: colon, lesion: adenocarcinoma, dosed 103 weeks, study length 104 weeks) was 2010 mg/kg/day and the TD50 (males, site: colon, lesion: polypoid adenoma, dosed 103 weeks, study length 104 weeks) was 1660 mg/kg/day. For the same molecule, the TD50 (males, site: kidney, lesion: tubule adenoma + tubule carcinoma, dosed 39 weeks, study length 66 weeks) was 239 mg/kg/day, the TD50 (males, site: kidney, lesion: tubule adenoma + tubule carcinoma, dosed 66 weeks, study length 66 weeks) was 1770 mg/kg/day and the TD50 (males, site: kidney, lesion: tubule adenoma + tubule carcinoma, dosed 103 weeks, study length 104 weeks) was 264 mg/kg/day. The TD50 (males, site: kidney, lesion: tubule adenoma, dosed 39 weeks, study length 66 weeks) was 239 mg/kg/day, the TD50 (males, site: kidney, lesion: tubule adenoma, dosed 66 weeks, study length 66 weeks) was 1770 mg/kg/day and the TD50 (males, site: kidney, lesion: tubule adenoma, dosed 103 weeks, study length 104 weeks) was 292 mg/kg/day. The TD50 (males, site: liver, lesion: hepatocellular adenoma + hepatoblastoma + hepatocellular carcinoma, dosed 39 weeks, study length 66 weeks) was 70.3 mg/kg/day, the TD50 (males, site: liver, lesion: hepatocellular adenoma + hepatoblastoma + hepatocellular carcinoma, dosed 66 weeks, study length 66 weeks) was 102 mg/kg/day and the TD50 (males, site: liver, lesion: hepatocellular adenoma + hepatoblastoma + hepatocellular carcinoma, dosed 103 weeks, study length 104 weeks) was 53.8 mg/kg/day. It also gave a TD50 (males, site: liver, lesion: hepatocellular adenoma + hepatocellular carcinoma, dosed 39 weeks, study length 66 weeks) of 70.3 mg/kg/day, a TD50 (males, site: liver, lesion: hepatocellular adenoma + hepatocellular carcinoma, dosed 66 weeks, study length 66 weeks) of 102 mg/kg/day and a TD50 (males, site: liver, lesion: hepatocellular adenoma + hepatocellular carcinoma, dosed 103 weeks, study length 104 weeks) of 53.8 mg/kg/day. It also gave a TD50 (males, site: liver, lesion: hepatocellular adenoma, dosed 39 weeks, study length 66 weeks) of 97.8 mg/kg/day, a TD50 (males, site: liver, lesion: hepatocellular adenoma, dosed 66 weeks, study length 66 weeks) of 386 mg/kg/day and a TD50 (males, site: liver, lesion: hepatocellular adenoma, dosed 103 weeks, study length 104 weeks) of 71.4 mg/kg/day. It also gave a TD50 (males, site: liver, lesion: hepatocellular carcinoma, dosed 39 weeks, study length 66 weeks) of 95.8 mg/kg/day, a TD50 (males, site: liver, lesion: hepatocellular carcinoma, dosed 66 weeks, study length 66 weeks) of 114 mg/kg/day and a TD50 (males, site: liver, lesion: hepatocellular carcinoma, dosed 103 weeks, study length 104 weeks) of 59.6 mg/kg/day. It also gave a TD50 (males, site: liver, lesion: hepatocholangiocarcinoma, dosed 39 weeks, study length 66 weeks) of 1240 mg/kg/day, a TD50 (males, site: liver, lesion: hepatocholangiocarcinoma, dosed 103 weeks, study length 104 weeks) of 1230 mg/kg/day and a TD50 (males, site: lung, lesion: alveolar/bronchiolar adenoma + alveolar/bronchiolar carcinoma, dosed 103 weeks, study length 104 weeks) of 794 mg/kg/day. It also gave a TD50 (males, site: lung, lesion: alveolar/bronchiolar adenoma, dosed 103 weeks, study length 104 weeks) of 1290 mg/kg/day, a TD50 (males, site: rectum, lesion: adenocarcinoma, dosed 103 weeks, study length 104 weeks) of 363 mg/kg/day and a TD50 (males, site: rectum, lesion: polypoid adenoma, dosed 39 weeks, study length 66 weeks) of 297 mg/kg/day. The TD50 (males, site: rectum, lesion: polypoid adenoma, dosed 66 weeks, study length 66 weeks) was 426 mg/kg/day, the TD50 (males, site: rectum, lesion: polypoid adenoma, dosed 103 weeks, study length 104 weeks) was 64.3 mg/kg/day and the TD50 (males, site: testis, lesion: interstitial-cell adenoma, bilateral + interstitial-cell adenoma, dosed 103 weeks, study length 104 weeks) was 133 mg/kg/day. For the same molecule, the TD50 (males, site: urinary bladder, lesion: transitional-cell carcinoma + transitional-cell papilloma, dosed 66 weeks, study length 66 weeks) was 3640 mg/kg/day, the TD50 (males, site: urinary bladder, lesion: transitional-cell carcinoma + transitional-cell papilloma, dosed 103 weeks, study length 104 weeks) was 564 mg/kg/day and the TD50 (males, site: urinary bladder, lesion: transitional-cell carcinoma, dosed 66 weeks, study length 66 weeks) was 3640 mg/kg/day. For the same molecule, the TD50 (males, site: urinary bladder, lesion: transitional-cell carcinoma, dosed 103 weeks, study length 104 weeks) was 1790 mg/kg/day and the TD50 (males, site: urinary bladder, lesion: transitional-cell papilloma, dosed 103 weeks, study length 104 weeks) was 846 mg/kg/day.
